25 molecules from US11623919B2, “Heterocyclic P2X7 antagonists” (AXXAM S.P.A., priority 2017, dated 2023) can be followed below.

The target of experiment [1] is T1, P2X7 receptor (Mus musculus, UniProt Q9Z1M0).
T1 construct: mP2X7 (IC50; nM); other: mP2X7; HEK-293 cells stably transfected with P2X7 receptor, Bz-ATP at EC80, Fluo-8 NW; potency
T1 sequence (Q9Z1M0 1-595): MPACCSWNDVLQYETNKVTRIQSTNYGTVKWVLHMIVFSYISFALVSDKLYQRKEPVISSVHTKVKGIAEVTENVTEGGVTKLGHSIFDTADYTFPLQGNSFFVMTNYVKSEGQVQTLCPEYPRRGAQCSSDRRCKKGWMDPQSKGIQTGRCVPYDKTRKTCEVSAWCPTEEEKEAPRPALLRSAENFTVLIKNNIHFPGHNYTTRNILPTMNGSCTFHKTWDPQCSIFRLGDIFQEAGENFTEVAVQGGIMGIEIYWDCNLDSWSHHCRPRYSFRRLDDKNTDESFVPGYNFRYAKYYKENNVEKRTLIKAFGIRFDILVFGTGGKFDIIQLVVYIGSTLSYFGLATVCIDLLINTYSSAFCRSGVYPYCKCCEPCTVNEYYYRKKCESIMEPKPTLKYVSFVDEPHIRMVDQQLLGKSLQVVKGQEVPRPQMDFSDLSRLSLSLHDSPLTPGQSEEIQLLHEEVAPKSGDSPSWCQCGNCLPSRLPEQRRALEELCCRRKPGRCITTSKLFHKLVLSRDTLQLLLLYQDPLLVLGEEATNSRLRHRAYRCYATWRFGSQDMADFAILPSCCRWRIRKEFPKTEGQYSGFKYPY
Kind of experiment: Screen Quest Fluo-8 No Wash Calcium Assay (Bz-ATP evoked Ca2+ influx, FLIPR). It counts as cell-based. The note with it: mP2X7; HEK-293 cells stably transfected with P2X7 receptor, Bz-ATP at EC80, Fluo-8 NW; potency ranges A-D. The gist of the method:
(§1)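 Compounds were added to Fluo-8-loaded P2X7-transfected HEK-293 cells 5 min before an EC80 Bz-ATP challenge, and Ca2+ influx was then recorded for 3 min. Buffer held 0.3 mM Ca2+ and no Mg2+. Inhibition was normalised to A438079, giving IC50 values.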

Experiment [2] addresses T2, P2X7 receptor (Rattus norvegicus, UniProt Q64663).
T2 construct: rP2X7 (IC50; nM); other: rP2X7; HEK-293 cells stably transfected with P2X7 receptor, Bz-ATP at EC80, Fluo-8 NW; potency
T2 sequence (Q64663 1-595): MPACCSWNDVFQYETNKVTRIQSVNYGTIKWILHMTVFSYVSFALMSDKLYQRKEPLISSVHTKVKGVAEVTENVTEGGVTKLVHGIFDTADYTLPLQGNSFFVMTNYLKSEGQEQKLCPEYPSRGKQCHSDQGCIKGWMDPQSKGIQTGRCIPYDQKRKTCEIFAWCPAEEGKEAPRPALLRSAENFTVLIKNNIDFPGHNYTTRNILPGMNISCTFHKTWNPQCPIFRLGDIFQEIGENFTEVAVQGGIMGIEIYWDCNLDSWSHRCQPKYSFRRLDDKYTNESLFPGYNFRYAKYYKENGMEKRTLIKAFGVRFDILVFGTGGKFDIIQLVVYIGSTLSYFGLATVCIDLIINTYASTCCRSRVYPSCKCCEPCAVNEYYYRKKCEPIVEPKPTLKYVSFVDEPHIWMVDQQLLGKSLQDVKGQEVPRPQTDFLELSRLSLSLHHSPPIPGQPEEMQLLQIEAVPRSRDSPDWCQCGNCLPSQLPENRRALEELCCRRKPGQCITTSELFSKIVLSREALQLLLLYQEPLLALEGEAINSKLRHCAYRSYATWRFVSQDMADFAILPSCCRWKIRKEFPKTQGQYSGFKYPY
The experiment is described as above. The note with it: rP2X7; HEK-293 cells stably transfected with P2X7 receptor, Bz-ATP at EC80, Fluo-8 NW; potency ranges A-D. It counts as cell-based. The gist of the method:
as §1

`O=c1onc(Cc2c(F)cccc2Cl)n1Cc1ccc(F)cc1Cl` [Example 60, 4-[(2-chloro-4-fluorophenyl)methyl]-3-[(2-chloro-6-fluorophenyl)methyl]-4,5-dihydro-1,2,4-oxadiazol-5-one]: the IC50 at P2X7 receptor [1] and at P2X7 receptor [2] was 1000 to 10000 nM throughout.
Take `O=c1onc(Cc2ccc(F)cc2Cl)n1Cc1ccc(F)cc1` [Example 73, 3-[(2-chloro-4-fluorophenyl)methyl]-4-[(4-fluorophenyl)methyl]-4,5-dihydro-1,2,4-oxadiazol-5-one]: the IC50 lay in the range of 1000 to 10000 nM at P2X7 receptor [1] and 200 to 1000 nM on P2X7 receptor [2].
In the case of `CC1CCCCC1Cn1c(Cc2c(F)cccc2Cl)noc1=O` (centres unmarked) [Example 87, 3-[(2-chloro-6-fluorophenyl)methyl]-4-[(2-methylcyclohexyl)methyl]-4,5-dihydro-1,2,4-oxadiazol-5-one], the IC50 was 200 to 1000 nM on P2X7 receptor [1] and less than 200 nM at P2X7 receptor [2].
The corresponding values for `O=c1onc(Cc2ccccc2Cl)n1CC1CCCCC1` [Example 117, 3-[(2-chlorophenyl)methyl]-4-(cyclohexylmethyl)-4,5-dihydro-1,2,4-oxadiazol-5-one] are 200 to 1000 nM and less than 200 nM.
As to `O=c1onc(Cc2c(F)cccc2Cl)n1CC1CCCCO1` (centres unmarked) [Example 94, 3-[(2-chloro-6-fluorophenyl)methyl]-4-(oxan-2-ylmethyl)-4,5-dihydro-1,2,4-oxadiazol-5-one], the IC50 on P2X7 receptor [1] lay in the range of 1000 to 10000 nM; on P2X7 receptor [2], 200 to 1000 nM.
The corresponding values for `O=c1onc(Cc2ccc(F)cc2F)n1CC1CCCCC1` [Example 119, 4-(cyclohexylmethyl)-3-[(2,4-difluorophenyl)methyl]-4,5-dihydro-1,2,4-oxadiazol-5-one] are 200 to 1000 nM and less than 200 nM.
For `O=c1onc(Cc2cccc(Cl)c2Cl)n1CC1CCCCC1` [Example 115, 4-(cyclohexylmethyl)-3-[(2,3-dichlorophenyl)methyl]-4,5-dihydro-1,2,4-oxadiazol-5-one], the results for the IC50 on P2X7 receptor [1] and at P2X7 receptor [2] were 1000 to 10000 nM and 200 to 1000 nM, respectively.
As for `O=c1onc(Cc2c(F)cccc2Cl)n1CC1CCCCCC1` [Example 92, 3-[(2-chloro-6-fluorophenyl)methyl]-4-(cycloheptylmethyl)-4,5-dihydro-1,2,4-oxadiazol-5-one], the IC50 was 200 to 1000 nM at P2X7 receptor [1] and less than 200 nM on P2X7 receptor [2].
In the same order, the values of `CC(c1ccc(F)cc1)n1c(Cc2c(F)cccc2Cl)noc1=O` (centres unmarked) [Example 48, 3-[(2-chloro-6-fluorophenyl)methyl]-4-[1-(4-fluorophenyl)ethyl]-4,5-dihydro-1,2,4-oxadiazol-5-one] are 200 to 1000 nM and 200 to 1000 nM.
The corresponding values for `O=c1onc(Cc2ccccc2Cl)n1Cc1ccc(F)cc1` [Example 76, 3-[(2-chlorophenyl)methyl]-4-[(4-fluorophenyl)methyl]-4,5-dihydro-1,2,4-oxadiazol-5-one] are 1000 to 10000 nM and 200 to 1000 nM.
In the same order, the values of `O=c1onc(Cc2c(F)cccc2Cl)n1Cc1ccc(F)cc1` [Example 55, 3-[(2-chloro-6-fluorophenyl)methyl]-4-[(4-fluorophenyl)methyl]-4,5-dihydro-1,2,4-oxadiazol-5-one] are 200 to 1000 nM and 200 to 1000 nM.
Take `O=c1onc(Cc2cccc(Cl)c2Cl)n1Cc1ccc(F)cc1` [Example 71, 3-[(2,3-dichlorophenyl)methyl]-4-[(4-fluorophenyl)methyl]-4,5-dihydro-1,2,4-oxadiazol-5-one]: the IC50 at P2X7 receptor [1] and at P2X7 receptor [2] was 1000 to 10000 nM throughout.
For `CC1(C)CCCCC1Cn1c(Cc2c(F)cccc2Cl)noc1=O` (centres unmarked) [Example 99, 3-[(2-chloro-6-fluorophenyl)methyl]-4-[(2,2-dimethylcyclohexyl)methyl]-4,5-dihydro-1,2,4-oxadiazol-5-one], the IC50 at P2X7 receptor [1] and on P2X7 receptor [2] was 200 to 1000 nM throughout.
As to `O=c1onc(Cc2ccc(Cl)cc2Cl)n1CC1CCCCC1` [Example 118, 4-(cyclohexylmethyl)-3-[(2,4-dichlorophenyl)methyl]-4,5-dihydro-1,2,4-oxadiazol-5-one], the IC50 on P2X7 receptor [1] is 1000 to 10000 nM; on P2X7 receptor [2], 200 to 1000 nM.
Take `O=c1onc(Cc2c(F)cccc2Cl)n1CC1CCC(F)(F)C1` (racemic) [Example 128, 3-[(2-chloro-6-fluorophenyl)methyl]-4-[(3,3-difluorocyclopentyl)methyl]-4,5-dihydro-1,2,4-oxadiazol-5-one]: the IC50 was 200 to 1000 nM on P2X7 receptor [1] and less than 200 nM at P2X7 receptor [2].
Regarding `Cc1cc(F)ccc1Cn1c(Cc2c(F)cccc2Cl)noc1=O` [Example 25, 3-[(2-chloro-6-fluorophenyl)methyl]-4-[(4-fluoro-2-methylphenyl)methyl]-4,5-dihydro-1,2,4-oxadiazol-5-one], the IC50 on P2X7 receptor [1] and on P2X7 receptor [2] was 200 to 1000 nM each time.
For `O=c1onc(Cc2ccccc2C(F)(F)F)n1CC1CCCCC1` [Example 116, 4-(cyclohexylmethyl)-3-{[2-(trifluoromethyl)phenyl]methyl}-4,5-dihydro-1,2,4-oxadiazol-5-one], the IC50 was 1000 to 10000 nM at P2X7 receptor [1] and 200 to 1000 nM on P2X7 receptor [2].
In the same order, the values of `O=c1onc(Cc2c(F)cccc2Cl)n1CC1CCCCC1` [Example 82, 3-[(2-chloro-6-fluorophenyl)methyl]-4-(cyclohexylmethyl)-4,5-dihydro-1,2,4-oxadiazol-5-one] are less than 200 nM and less than 200 nM.
On to `O=c1onc(CC2CCCCC2)n1Cc1c(F)cccc1Cl` [Example 130, 4-[(2-chloro-6-fluorophenyl)methyl]-3-(cyclohexylmethyl)-4,5-dihydro-1,2,4-oxadiazol-5-one], for which the IC50 at P2X7 receptor [1] was 200 to 1000 nM; on P2X7 receptor [2] it was less than 200 nM.
Regarding `O=c1onc(Cc2ccccc2F)n1CC1CCCCC1` [Example 120, 4-(cyclohexylmethyl)-3-[(2-fluorophenyl)methyl]-4,5-dihydro-1,2,4-oxadiazol-5-one], the figures for the IC50 on P2X7 receptor [1] and at P2X7 receptor [2] were 200 to 1000 nM and less than 200 nM, respectively.
For the molecule `O=c1onc(Cc2ccc(F)cc2Cl)n1CC1CCCCC1` [Example 114, 3-[(2-chloro-4-fluorophenyl)methyl]-4-(cyclohexylmethyl)-4,5-dihydro-1,2,4-oxadiazol-5-one], the IC50 on P2X7 receptor [1] is 200 to 1000 nM; on P2X7 receptor [2], less than 200 nM.
The corresponding values for `O=c1onc(Cc2c(F)cccc2Cl)n1Cc1ccc(C(F)(F)F)o1` [Example 66, 3-[(2-chloro-6-fluorophenyl)methyl]-4-{[5-(trifluoromethyl)furan-2-yl]methyl}-4,5-dihydro-1,2,4-oxadiazol-5-one] are 1000 to 10000 nM and 200 to 1000 nM.
In the same order, the values of `O=c1onc(Cc2c(F)cccc2Cl)n1CC1(F)CCCCC1` [Example 96, 3-[(2-chloro-6-fluorophenyl)methyl]-4-[(1-fluorocyclohexyl)methyl]-4,5-dihydro-1,2,4-oxadiazol-5-one] are 200 to 1000 nM and 200 to 1000 nM.
With `O=c1onc(Cc2c(F)cccc2Cl)n1Cc1cccc(F)c1` [Example 26, 3-[(2-chloro-6-fluorophenyl)methyl]-4-[(3-fluorophenyl)methyl]-4,5-dihydro-1,2,4-oxadiazol-5-one], the IC50 is 200 to 1000 nM on P2X7 receptor [1] and less than 200 nM at P2X7 receptor [2].
For the molecule `O=c1onc(Cc2c(F)cccc2Cl)n1CC1CCC(F)(F)C1` (single isomer, unassigned) [Example 149, 3-(2-chloro-6-fluorobenzyl)-4-[(3,3-difluorocyclopentyl)methyl]-1,2,4-oxadiazol-5(4H)-one], the values for the IC50 at P2X7 receptor [1] and at P2X7 receptor [2] were 200 to 1000 nM and less than 200 nM, respectively.

As usually defined, the IC50 is the concentration that gives 50% inhibition.
